Changes are numbered by the printed parent chain. Where “and” joins values, the source holds several entries; their conditions need not be identical. Identical values can stand only once.
Columns and labels:
EcDHFR [1] = biological target: T1, EcDHFR (Escherichia coli, UniProt P0ABQ4); assay: biochemical; format: binding
T1 construct: E. coli DHFR gene (UniProtKB:P0ABQ4) and dfrA1 gene (UniProtKB:A4GRC7) were synthesized and cloned in pET-41a (+) vector; made in house; host or cells: E. coli BL21(DE3)

DfrA5 [2] = biological target: T2, DfrA5 (Escherichia coli, UniProt P11731); format: binding, E. coli; parameters: E. coli dfrA5 gene (UniProtKB:A0A4Y6L037) was synthesized and cloned in pET-24a (+) vector with the same restriction sites; 6xHis tag (C); made in house; host or cells: E. coli BL21(DE3); details: binary complex, 10× molar excess of ligand
Protocol: (§1) In all, 200 µg of purified enzyme was preincubated for 18 h without and with a 10× molar excess of the ligand(s) (NADPH, TMP or PLA) in 20 mM Hepes 7.5, 100 mM KCl, 5% glycerol, ±2.0% DMSO and 2 mM DTT buffer. […] Changes in intrinsic fluorescence intensity (measured ratio of absorbance at 350 nm over 330 nm) from tryptophan residues were used to calculate derivatives using the evaluation features provided by the Tycho instrument. The inflection temperature (Ti) as a marker of protein structural integrity was determined by the first derivative of the signal (ratio of 350 nm/330 nm).

DfrA5 [3] = biological target: T2, DfrA5; assay: biochemical; format: binding, E. coli
DfrA1 [4] = biological target: T3, DfrA1 (Escherichia coli, UniProt P00382); format: binding, E. coli; details: binary complex, 10× molar excess of ligand
T3 construct: dfrA1 gene (UniProtKB:A4GRC7) were synthesized and cloned in pET-41a (+) vector; made in house; host or cells: E. coli BL21(DE3)
T3 sequence (P00382 1-157): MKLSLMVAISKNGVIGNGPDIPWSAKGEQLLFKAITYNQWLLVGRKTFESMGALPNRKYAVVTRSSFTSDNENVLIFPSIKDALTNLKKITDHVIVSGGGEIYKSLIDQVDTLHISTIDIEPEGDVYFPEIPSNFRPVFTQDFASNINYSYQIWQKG
Protocol: as §1, with “instrument.” for “instrument. The inflection temperature (Ti) as a marker of protein structural integrity was determined by the first derivative of the signal (ratio of 350 nm/330 nm).”

DfrA1 [5] = biological target: T3, DfrA1; assay: biochemical; format: binding, E. coli
EcDHFR D27E/L28Q = biological target: T4, EcDHFR D27E/L28Q (Escherichia coli, UniProt P0ABQ4, D27E/L28Q); assay: Steady-state kinetic measurements; format: biochemical; details: varied substrate 1 to 200 µM, 25 °C
T4 construct: using E. coli DHFR template previously synthesized by GeneScript; made in house; host or cells: E. coli BL21(DE3)
T4 sequence (P0ABQ4 1-159 D27E/L28Q): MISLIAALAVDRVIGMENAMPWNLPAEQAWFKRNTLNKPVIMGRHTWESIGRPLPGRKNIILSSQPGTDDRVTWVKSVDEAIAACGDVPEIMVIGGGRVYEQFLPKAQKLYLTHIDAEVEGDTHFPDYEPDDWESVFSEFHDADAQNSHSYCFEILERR
From the text: (§2) using a nonlinear regression method in GraphPad Prism 9.2.0 software. To determine the turnover number (kcat) using the same model, the enzyme concentration (based on the protein concentration determined by Bradford assay) was constrained to a constant value and analyzed by the following equation (Eq. 3):3 Y=Et×kcat×X/(Km+X)

EcDHFR L28Q = biological target: T5, EcDHFR L28Q (Escherichia coli, UniProt P0ABQ4, L28Q); assay: Steady-state kinetic measurements; format: biochemical; details: varied substrate 1 to 200 µM, 25 °C
T5 construct: using E. coli DHFR template previously synthesized by GeneScript; made in house; host or cells: E. coli BL21(DE3)
T5 sequence (P0ABQ4 1-159 L28Q): T4 sequence (P0ABQ4 1-159 D27E/L28Q) with E27D
From the text: as §2

EcDHFR D27E = biological target: T6, EcDHFR D27E (Escherichia coli, UniProt P0ABQ4, D27E); assay: Steady-state kinetic measurements; format: biochemical; details: varied substrate 1 to 200 µM, 25 °C
T6 construct: using E. coli DHFR template previously synthesized by GeneScript; made in house; host or cells: E. coli BL21(DE3)
T6 sequence (P0ABQ4 1-159 D27E): T4 sequence (P0ABQ4 1-159 D27E/L28Q) with Q28L
From the text: as §2

EcDHFR [6] = biological target: T1, EcDHFR; format: binding; details: binary complex, 10× molar excess of ligand
Protocol: as §1, with “instrument.” for “instrument. The inflection temperature (Ti) as a marker of protein structural integrity was determined by the first derivative of the signal (ratio of 350 nm/330 nm).”

DfrA5 [7] = format: biochemical, E. coli
From the text: as §2

DfrA1 [8] = format: biochemical, E. coli
From the text: as §2

T2 sequence (P11731 whole entry): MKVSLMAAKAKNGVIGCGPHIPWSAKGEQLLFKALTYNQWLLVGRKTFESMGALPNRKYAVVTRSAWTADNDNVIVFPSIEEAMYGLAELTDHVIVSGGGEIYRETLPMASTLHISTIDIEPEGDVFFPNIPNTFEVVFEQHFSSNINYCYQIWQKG

## NC(=O)C1=CN([C@@H]2O[C@H](COP(=O)(O)OP(=O)(O)OC[C@H]3O[C@@H](n4cnc5c(N)ncnc54)[C@H](OP(=O)(O)O)[C@@H]3O)[C@@H](O)[C@H]2O)C=CC1 [NADPH]
EcDHFR [1]; EcDHFR apo
  Kd: 771 ± 145 nM
EcDHFR [1]; EcDHFR apo form, Fig. S5a titration
  Kd: 661 nM
EcDHFR [1]; EcDHFR:TMP (preincubated with 1 µM TMP), titrant NADPH
  Kd: 8 nM and 8.1 nM
EcDHFR [1]; NADPH KD ± Trimethoprim
  Fold change in KD: 95.2 ± 50.3
DfrA5 [2]
  Ti: 69.2 ± 0.5 °C
  Δ (Ti shift vs apo): 2.9 °C
DfrA5 [3]; DfrA5:TMP, titrant NADPH
  Kd: 1540 ± 380 nM
DfrA5 [3]; DfrA5:UCP1228 (100 µM UCP1228), titrant NADPH
  Kd: 459 ± 157 nM
DfrA5 [3]; DfrA5 apo
  Kd: 7470 ± 1670 nM
DfrA5 [3]; DfrA5 apo form (Fig. S8)
  Kd: 6840 nM
DfrA5 [3]; DfrA5 apo, series NADPH KD ± UCP1228
  Kd: 6840 ± 1610 nM
DfrA5 [3]; DfrA5 preincubated with 100 µM UCP1228, titrant NADPH (Fig. S8)
  Kd: 450 nM
DfrA5 [3]; NADPH KD ± Trimethoprim
  Fold change in KD: 5 and 4.9 ± 1.6
DfrA5 [3]; NADPH KD ± UCP1228
  Fold change in KD: 15 and 14.9 ± 6.2
DfrA1 [4]
  Ti: 56.5 ± 0.8 °C
  Δ (Ti shift vs apo): 6.7 °C
DfrA1 [5]; KD, DfrA1:TMP, titrant NADPH
  Kd: 430 ± 95 nM
DfrA1 [5]; KD, DfrA1:UCP1228 (100 µM UCP1228), titrant NADPH
  Kd: 289 ± 51 nM
DfrA1 [5]; KD, DfrA1 apo
  Kd: 1650 ± 230 nM
DfrA1 [5]; KD, DfrA1 apo, series NADPH KD ± UCP1228
  Kd: 1040 ± 106 nM
DfrA1 [5]; Kd, DfrA1 apo form (Fig. S8)
  Kd: 1040 ± 110 nM
DfrA1 [5]; Kd, DfrA1 preincubated with 100 µM UCP1228, titrant NADPH (Fig. S8)
  Kd: 290 nM
DfrA1 [5]; NADPH KD ± Trimethoprim
  Fold change in KD: 4 and 3.8 ± 1.0
DfrA1 [5]; NADPH KD ± UCP1228
  Fold change in KD: 4 and 3.6 ± 0.7
EcDHFR D27E/L28Q
  Km: 11.1 ± 1.6 µM
  kcat: 3.8 ± 0.2 s⁻¹
EcDHFR L28Q
  Km: 7.6 ± 1.3 µM
  kcat: 4.4 ± 0.2 s⁻¹
EcDHFR D27E
  Km: 5.8 ± 0.9 µM
  kcat: 5.9 ± 0.3 s⁻¹
EcDHFR [6]
  Ti 1: 53.8 ± 0.4 °C
  Ti 2: 63.1 ± 1.3 °C
  Δ1 (Ti shift vs apo): 4.2 °C
  Δ2 (Ti shift vs apo): 2.9 °C
DfrA5 [7]
  fold increase in KM compared to EcDHFR: 3 fold
DfrA1 [8]
  fold increase in KM compared to EcDHFR: 2 fold

From paper PMC9106665 (Communications Biology, 2022)
